Test results as given in patent publication US8920851B2, “Treatment of neurodegenerative diseases” (Velacor Therapeutics Pty Ltd, priority 2006, dated 2014).

Target: T1, PP2A (Homo sapiens, UniProt P67775)
T1 construct: the phosphatase activity of the general pool of intracellular PP2A; endogenous in cells; host or cells: PC3 prostate carcinoma cells
Test: PP2A immunoprecipitation from treated PC3 cells and phosphatase assay
Assay type: cell-based
Settings: PC3 cells treated 1 hour; sodium selenate 500 μM, endothall A 100 μM
Experimental: Free phosphate was removed by passing cell lysates through desalting columns, and measured phosphatase activity using a phosphor-serine peptide and malachite green.
1×10^6 PC3 cells were plated in 60 mm plates and allowed attach for 8 h, then serum starved over night. Following various treatments as indicated, the media was aspirated and cells washed once with TBS. Cells were lysed in 0.3 ml of lysis buffer (20 mM Tris-HCl, pH 7.0, 1% Igepal-CA, 2 mM EDTA, 2 mM EGTA, 1× Complete Protease Inhibitor Cocktail) and phosphates removed by passing the lysate through a 2 ml Zeba Desalt Spin Column (Pierce #89890). Protein concentration of the desalted lysate was determined by the BCA assay as previously described. 100-150 μg of total protein was immunoprecipitated with 4 μg of anti-PP2A monoclonal antibody and 30 μl of Protein A-sepharose slurry at 4° C. for 2 h. Samples were then pelleted at 14,000 rpm for 1 min, washed three times in excess TBS and once with pNPP assay buffer. After the final spin all of the supernatant was carefully removed and 500 μM of phosphor-threonine peptide in a final volume of 80 μl added to the beads. Samples were incubated at 30° C. for 10 min with agitation, and the reaction terminated by the addition of malachite green solution. Absorbance was read at 590 nm for each sample in duplicate.

T1 sequence (P67775 whole entry): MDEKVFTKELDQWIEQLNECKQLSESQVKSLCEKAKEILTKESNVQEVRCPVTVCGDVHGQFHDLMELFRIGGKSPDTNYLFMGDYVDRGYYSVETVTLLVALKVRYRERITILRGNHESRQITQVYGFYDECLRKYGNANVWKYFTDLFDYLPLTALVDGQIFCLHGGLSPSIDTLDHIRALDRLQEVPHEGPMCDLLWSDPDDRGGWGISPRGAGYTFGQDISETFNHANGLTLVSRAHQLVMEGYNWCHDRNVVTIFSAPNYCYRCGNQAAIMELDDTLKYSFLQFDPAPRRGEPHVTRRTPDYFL
T1 sequence (P30153 2-589 partner limits assumed): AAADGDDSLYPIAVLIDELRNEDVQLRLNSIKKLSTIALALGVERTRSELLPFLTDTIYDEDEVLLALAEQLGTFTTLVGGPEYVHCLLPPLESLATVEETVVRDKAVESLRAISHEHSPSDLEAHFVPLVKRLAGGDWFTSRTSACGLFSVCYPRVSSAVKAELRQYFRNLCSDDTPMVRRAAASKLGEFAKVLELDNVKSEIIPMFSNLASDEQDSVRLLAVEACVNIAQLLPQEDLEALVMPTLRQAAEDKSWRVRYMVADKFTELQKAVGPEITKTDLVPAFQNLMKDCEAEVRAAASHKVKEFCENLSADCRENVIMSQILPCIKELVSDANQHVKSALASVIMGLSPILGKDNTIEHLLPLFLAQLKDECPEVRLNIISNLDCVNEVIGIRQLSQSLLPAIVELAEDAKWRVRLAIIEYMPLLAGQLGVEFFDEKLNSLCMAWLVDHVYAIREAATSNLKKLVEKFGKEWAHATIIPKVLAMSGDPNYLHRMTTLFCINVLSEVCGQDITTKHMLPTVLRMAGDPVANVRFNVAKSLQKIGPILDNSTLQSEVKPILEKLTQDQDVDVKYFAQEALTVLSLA

O=[Se](=O)(O)O [sodium selenate]
phosphatase activity of immunoprecipitated PP2A (general intracellular pool): had no effect
